Measured values from paper PMC5433425 (PeerJ, 2017).
Converted amounts (≈) assume the structure as drawn. “And” between values parts separate entries of the source, which are not always exact repeats. Equal entries are not always repeated. Where two headings read alike, the source gives them in different places.

Legend:
[1] = system: Acinetobacter baumannii ATCC19606T; test: MIC, antibacterial specificity; format: cell-based
E. coli AG100 = test: Time-kill kinetics (CFU); format: cell-based, Escherichia coli
Method: A drug-free control was included in the assay to monitor the normal growth of the strain. Cultures were sampled for CFU determination after 0, 1, 2, 3, 4, 5, 6, and 24 h of incubation at 37 °C with shaking. For CFU determination, 10-fold serial dilutions were made in a saline solution and 20 µl of each solution was placed onto the surface of a Mueller–Hinton agar plate. The colonies were counted after the incubation of the plates at 37 °C for 24 h. The limit of detection of the assay was 17 CFU/ml. Each assay was repeated at least twice.

CCCOc1ccc(-c2cc(OCCN3CCNCC3)c3ccccc3n2)cc1 [PQQ4R, 4-(2-(piperazin-1-yl)ethoxy)-2-(4-propoxyphenyl) quinolone]
MIC [1]: 128 µg/mL (≈ 327 µM) | time of exposure to reduce viability to zero (E. coli AG100): 3 h and 4 h | MBC (minimal bactericidal concentration) (E. coli AG100; AG100): 640 µM (≈ 251 µg/mL) | viability (E. coli AG100; AG100, 80 μM (1/8 MIC)): 100% | viability (E. coli AG100; AG100, 160 μM (1/4 MIC)): 98% | viability (E. coli AG100; AG100, 320 μM (1/2 MIC)): 92% | viability (E. coli AG100; AG100, 640 μM (MIC)): 0% | CFU count Log10 (E. coli AG100; AG100, 1/2 MIC, T1 (1 h)): 3.836 | CFU count Mean (E. coli AG100; AG100, 1/2 MIC, T1 (1 h)): 6.8E+03 | CFU count Log10 (E. coli AG100; AG100, 1/2 MIC, T2 (2 h)): 3.5272 | CFU count Mean (E. coli AG100; AG100, 1/2 MIC, T2 (2 h)): 3.4E+03 | CFU count Log10 (E. coli AG100; AG100, 1/2 MIC, T3 (3 h)): 3.503 | CFU count Mean (E. coli AG100; AG100, 1/2 MIC, T3 (3 h)): 3.2E+03 | CFU count Log10 (E. coli AG100; AG100, 1/2 MIC, T4 (4 h)): 3.423 | CFU count Mean (E. coli AG100; AG100, 1/2 MIC, T4 (4 h)): 2.6E+03 | CFU count Log10 (E. coli AG100; AG100, 1/2 MIC, T5 (5 h)): 2.79 | CFU count Mean (E. coli AG100; AG100, 1/2 MIC, T5 (5 h)): 6.2E+02 | CFU count Log10 (E. coli AG100; AG100, 1/2 MIC, T6 (6 h)): 2.222 | CFU count Mean (E. coli AG100; AG100, 1/2 MIC, T6 (6 h)): 1.7E+02 | CFU count Mean (E. coli AG100; AG100, 1/2 MIC, T24 (24 h)): 2.0E+13 | CFU count - Strain dilution (E. coli AG100; AG100, 2xMIC, T1 (1 h)): 0 | CFU count - absolute values (E. coli AG100; AG100, 2xMIC, T1 (1 h)): 0 | CFU count Log10 (E. coli AG100; AG100, 2xMIC, T1 (1 h)): 0 | CFU count Mean (E. coli AG100; AG100, 2xMIC, T1 (1 h)): 0.0E+00 | CFU count - Strain dilution (E. coli AG100; AG100, 2xMIC, T2 (2 h)): 0 | CFU count - absolute values (E. coli AG100; AG100, 2xMIC, T2 (2 h)): 0 | CFU count Log10 (E. coli AG100; AG100, 2xMIC, T2 (2 h)): 0 | CFU count Mean (E. coli AG100; AG100, 2xMIC, T2 (2 h)): 0.0E+00 | CFU count - Strain dilution (E. coli AG100; AG100, 2xMIC, T3 (3 h)): 0 | CFU count - absolute values (E. coli AG100; AG100, 2xMIC, T3 (3 h)): 0 | CFU count Log10 (E. coli AG100; AG100, 2xMIC, T3 (3 h)): 0 | CFU count Mean (E. coli AG100; AG100, 2xMIC, T3 (3 h)): 0.0E+00 | CFU count - Strain dilution (E. coli AG100; AG100, 2xMIC, T4 (4 h)): 0 | CFU count - absolute values (E. coli AG100; AG100, 2xMIC, T4 (4 h)): 0 | CFU count Log10 (E. coli AG100; AG100, 2xMIC, T4 (4 h)): 0 | CFU count Mean (E. coli AG100; AG100, 2xMIC, T4 (4 h)): 0.0E+00 | CFU count - Strain dilution (E. coli AG100; AG100, 2xMIC, T5 (5 h)): 0 | CFU count - absolute values (E. coli AG100; AG100, 2xMIC, T5 (5 h)): 0 | CFU count Log10 (E. coli AG100; AG100, 2xMIC, T5 (5 h)): 0 | CFU count Mean (E. coli AG100; AG100, 2xMIC, T5 (5 h)): 0.0E+00 | CFU count - Strain dilution (E. coli AG100; AG100, 2xMIC, T6 (6 h)): 0 | CFU count - absolute values (E. coli AG100; AG100, 2xMIC, T6 (6 h)): 0 | CFU count Log10 (E. coli AG100; AG100, 2xMIC, T6 (6 h)): 0 | CFU count Mean (E. coli AG100; AG100, 2xMIC, T6 (6 h)): 0.0E+00 | CFU count - Strain dilution (E. coli AG100; AG100, 2xMIC, T24 (24 h)): 0 | CFU count - absolute values (E. coli AG100; AG100, 2xMIC, T24 (24 h)): 0 | CFU count Log10 (E. coli AG100; AG100, 2xMIC, T24 (24 h)): 0 | CFU count Mean (E. coli AG100; AG100, 2xMIC, T24 (24 h)): 0.0E+00 | time of exposure to reduce viability to zero (E. coli AG100; AG100, 2× MIC): 1 h | CFU count - Strain dilution (E. coli AG100; AG100, 4xMIC, T1 (1 h)): 0 | CFU count - absolute values (E. coli AG100; AG100, 4xMIC, T1 (1 h)): 0 | CFU count Log10 (E. coli AG100; AG100, 4xMIC, T1 (1 h)): 0 | CFU count Mean (E. coli AG100; AG100, 4xMIC, T1 (1 h)): 0.0E+00 | CFU count - Strain dilution (E. coli AG100; AG100, 4xMIC, T2 (2 h)): 0 | CFU count - absolute values (E. coli AG100; AG100, 4xMIC, T2 (2 h)): 0 | CFU count Log10 (E. coli AG100; AG100, 4xMIC, T2 (2 h)): 0 | CFU count Mean (E. coli AG100; AG100, 4xMIC, T2 (2 h)): 0.0E+00 | CFU count - Strain dilution (E. coli AG100; AG100, 4xMIC, T3 (3 h)): 0 | CFU count - absolute values (E. coli AG100; AG100, 4xMIC, T3 (3 h)): 0 | CFU count Log10 (E. coli AG100; AG100, 4xMIC, T3 (3 h)): 0 | CFU count Mean (E. coli AG100; AG100, 4xMIC, T3 (3 h)): 0.0E+00 | CFU count - Strain dilution (E. coli AG100; AG100, 4xMIC, T4 (4 h)): 0 | CFU count - absolute values (E. coli AG100; AG100, 4xMIC, T4 (4 h)): 0 | CFU count Log10 (E. coli AG100; AG100, 4xMIC, T4 (4 h)): 0 | CFU count Mean (E. coli AG100; AG100, 4xMIC, T4 (4 h)): 0.0E+00 | CFU count - Strain dilution (E. coli AG100; AG100, 4xMIC, T5 (5 h)): 0 | CFU count - absolute values (E. coli AG100; AG100, 4xMIC, T5 (5 h)): 0 | CFU count Log10 (E. coli AG100; AG100, 4xMIC, T5 (5 h)): 0 | CFU count Mean (E. coli AG100; AG100, 4xMIC, T5 (5 h)): 0.0E+00 | CFU count - Strain dilution (E. coli AG100; AG100, 4xMIC, T6 (6 h)): 0 | CFU count - absolute values (E. coli AG100; AG100, 4xMIC, T6 (6 h)): 0 | CFU count Log10 (E. coli AG100; AG100, 4xMIC, T6 (6 h)): 0 | CFU count Mean (E. coli AG100; AG100, 4xMIC, T6 (6 h)): 0.0E+00 | CFU count - Strain dilution (E. coli AG100; AG100, 4xMIC, T24 (24 h)): 0
